In PubChem BioAssay AID330 (DTP/NCI, 2004):
Where “and” joins values, the source holds several entries; their conditions need not be identical. Identical values can stand only once. Toxic doses and inconclusive results are not listed.

System: P388 leukemia ip, CD2F1 mice, survival T/C
Assay: NCI In Vivo Anticancer Drug Screen. Data for tumor model P388 Leukemia (intraperitoneal) in CD2F1 (CDF1) mice
Conditions: endpoint: median survival time, higher = longer survival
In short: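 Mice carrying the transplanted tumor received test compound or vehicle. Survival was recorded in each group, and the value is the treated-group measurement divided by that of the vehicle-treated control group.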

[1] = dose: 60.0 mg/kg/injection, schedule: Q01DX005 (ip), vehicle: saline with Tween-80
[2] = dose: 120.0 mg/kg/injection, schedule: Q01DX005 (ip), vehicle: saline with Tween-80
[3] = dose: 240.0 mg/kg/injection, schedule: Q01DX005 (ip), vehicle: saline with Tween-80
[4] = dose: 50.0 mg/kg/injection, schedule: Q01DX009 (ip), vehicle: Klucel (hydroxypropylcellulose) (HPC)
[5] = dose: 100.0 mg/kg/injection, schedule: Q01DX009 (ip), vehicle: Klucel (hydroxypropylcellulose) (HPC)
[6] = dose: 200.0 mg/kg/injection, schedule: Q01DX009 (ip), vehicle: Klucel (hydroxypropylcellulose) (HPC)
[7] = dose: 100.0 mg/kg/injection, schedule: Q01DX009 (ip), vehicle: saline
[8] = dose: 200.0 mg/kg/injection, schedule: Q01DX009 (ip), vehicle: saline
[9] = dose: 50.0 mg/kg/injection, schedule: Q01DX005 (ip), vehicle: Klucel (hydroxypropylcellulose) (HPC)
[10] = dose: 100.0 mg/kg/injection, schedule: Q01DX005 (ip), vehicle: Klucel (hydroxypropylcellulose) (HPC)
[11] = dose: 100.0 mg/kg/injection, schedule: Q01DX009 (ip), vehicle: saline with Tween-80
[12] = dose: 200.0 mg/kg/injection, schedule: Q01DX009 (ip), vehicle: saline with Tween-80

## CCO/C=C1/N=C(c2ccc(OC)cc2OC)OC1=O
[1]
  T/C: 95 % of control
[2]
  T/C: 104 % of control
[3]
  T/C: 106 % of control

## COc1ccc2c(c1)CCn1c(C)c(COC(=O)NC(C)C)c(COC(=O)NC(C)C)c1-2
dose: 12.5 mg/kg/injection, schedule: Q01DX009 (ip), vehicle: distilled water + Tween-80
  T/C: 153 % of control and 160 % of control
dose: 25.0 mg/kg/injection, schedule: Q01DX009 (ip), vehicle: distilled water + Tween-80
  T/C: 153 % of control and 164 % of control

## CCc1c(C)c(SC)n(C)c(=O)c1C#N
dose: 25.0 mg/kg/injection, schedule: Q01DX009 (ip), vehicle: Klucel (hydroxypropylcellulose) (HPC)
  T/C: 99 % of control
[4]
  T/C: 100 % of control
[5]
  T/C: 97 % of control
[6]
  T/C: 91 % of control

## O=C(CC1(O)C(=O)Nc2ccccc21)c1cccc2ccccc12 (stereo not given)
[1]
  T/C: 110 % of control
[2]
  T/C: 113 % of control
[3]
  T/C: 103 % of control

## CP12(OC(C(F)(F)F)(C(F)(F)F)c3ccccc31)OC(C(F)(F)F)(C(F)(F)F)c1ccccc12
dose: 100.0 mg/kg/injection, schedule: Q04DX002 (ip), vehicle: Klucel (hydroxypropylcellulose) (HPC)
  T/C: 100 % of control
dose: 200.0 mg/kg/injection, schedule: Q04DX002 (ip), vehicle: Klucel (hydroxypropylcellulose) (HPC)
  T/C: 101 % of control
dose: 400.0 mg/kg/injection, schedule: Q04DX002 (ip), vehicle: Klucel (hydroxypropylcellulose) (HPC)
  T/C: 96 % of control

## NCC(=O)Nc1ccc(O)cc1
dose: 100.0 mg/kg/injection, schedule: Q01DX009 (ip), vehicle: saline sonified
  T/C: 104 % of control
dose: 100.0 mg/kg/injection, schedule: Q04DX003 (ip), vehicle: saline sonified
  T/C: 110 % of control
dose: 200.0 mg/kg/injection, schedule: Q04DX003 (ip), vehicle: saline sonified
  T/C: 110 % of control
dose: 264.0 mg/kg/injection, schedule: Q04DX003 (ip), vehicle: saline with Tween-80
  T/C: 109 % of control
dose: 400.0 mg/kg/injection, schedule: Q04DX003 (ip), vehicle: saline with Tween-80
  T/C: 109 % of control
dose: 600.0 mg/kg/injection, schedule: Q04DX003 (ip), vehicle: saline with Tween-80
  T/C: 109 % of control

## CC(CN(C)C)C(/C=C/c1ccccc1)=N\NC(=O)c1ccccc1 (stereo not given)
dose: 60.0 mg/kg/injection, schedule: Q01DX005 (ip), vehicle: saline
  T/C: 97 % of control
dose: 120.0 mg/kg/injection, schedule: Q01DX005 (ip), vehicle: saline
  T/C: 96 % of control
dose: 240.0 mg/kg/injection, schedule: Q01DX005 (ip), vehicle: saline
  T/C: 97 % of control

## O=C1C=C(C/C=C/c2ccccc2)C(C/C=C/c2ccccc2)C=C1O (stereo not given)
dose: 0.32 mg/kg/injection, schedule: Q01DX009 (ip), vehicle: saline with Tween-80
  T/C: 102 % of control
dose: 0.63 mg/kg/injection, schedule: Q01DX009 (ip), vehicle: saline with Tween-80
  T/C: 107 % of control
dose: 1.25 mg/kg/injection, schedule: Q01DX009 (ip), vehicle: saline with Tween-80
  T/C: 103 % of control
dose: 2.5 mg/kg/injection, schedule: Q01DX009 (ip), vehicle: saline with Tween-80
  T/C: 102 % of control and 93 % of control
dose: 10.0 mg/kg/injection, schedule: Q01DX009 (ip), vehicle: saline with Tween-80
  T/C: 94 % of control

## CN1CCC(OC(N)=O)CC1
[7]
  T/C: 100 % of control
[8]
  T/C: 100 % of control
dose: 400.0 mg/kg/injection, schedule: Q01DX009 (ip), vehicle: saline
  T/C: 104 % of control

## CC(C)(C)OC(=O)NCCCCC(NC(=O)OCC1c2ccccc2-c2ccccc21)C(=O)O (stereo not given)
[9]
  T/C: 109 % of control
[10]
  T/C: 93 % of control

## COc1cc2c(cc1OC)C(=O)OC(=O)C2
[9]
  T/C: 100 % of control
[10]
  T/C: 92 % of control
dose: 200.0 mg/kg/injection, schedule: Q01DX005 (ip), vehicle: Klucel (hydroxypropylcellulose) (HPC)
  T/C: 95 % of control

## Cc1ccc(S(=O)(=O)N/N=C2/C(=O)N(c3ccc(Cl)cc3C)C(=O)C(=O)C2c2nc3ccccc3s2)cc1 (stereo not given)
[1]
  T/C: 98 % of control
[2]
  T/C: 103 % of control
[3]
  T/C: 104 % of control

## BrC/C(=N\N=C(/CBr)c1ccccc1)c1ccccc1
[4]
  T/C: 103 % of control
[5]
  T/C: 112 % of control
[6]
  T/C: 96 % of control

## CCCCCC(=O)C(=O)c1ccc(O)cc1O
[4]
  T/C: 89 % of control
[5]
  T/C: 109 % of control
[6]
  T/C: 100 % of control

## CC(N)C(=O)NC(Cc1ccccc1)C(=O)O (stereo not given)
dose: 50.0 mg/kg/injection, schedule: Q01DX005 (ip), vehicle: saline
  T/C: 101 % of control
dose: 100.0 mg/kg/injection, schedule: Q01DX005 (ip), vehicle: saline
  T/C: 105 % of control
dose: 200.0 mg/kg/injection, schedule: Q01DX005 (ip), vehicle: saline
  T/C: 105 % of control

## Nc1nc2nc(N)[nH]c2c(=O)[nH]1
dose: 12.5 mg/kg/injection, schedule: Q01DX005 (ip), vehicle: saline with Tween-80
  T/C: 95 % of control
dose: 25.0 mg/kg/injection, schedule: Q01DX005 (ip), vehicle: saline with Tween-80
  T/C: 100 % of control and 105 % of control and 106 % of control
dose: 50.0 mg/kg/injection, schedule: Q01DX005 (ip), vehicle: saline with Tween-80
  T/C: 100 % of control and 104 % of control and 113 % of control
dose: 200.0 mg/kg/injection, schedule: Q01DX005 (ip), vehicle: saline with Tween-80
  T/C: 107 % of control

## CCOc1ccc(N=Nc2c(O)n(-c3ccc(Br)cc3)c(=S)n(-c3ccc(OC)cc3)c2=O)cc1
dose: 100.0 mg/kg/injection, schedule: Q04DX002 (ip), vehicle: saline with Tween-80
  T/C: 91 % of control
dose: 200.0 mg/kg/injection, schedule: Q04DX002 (ip), vehicle: saline with Tween-80
  T/C: 91 % of control
dose: 400.0 mg/kg/injection, schedule: Q04DX002 (ip), vehicle: saline with Tween-80
  T/C: 94 % of control

## CCN1CC2(C)CCC(O)C34C2C(OC)C(O)(C13)C1(O)CC(OC)C2CC4(O)C1C2OC(=O)c1ccccc1 (stereo not given)
dose: 1.0 mg/kg/injection, schedule: Q01DX005 (ip), vehicle: saline + alcohol
  T/C: 102 % of control
dose: 2.0 mg/kg/injection, schedule: Q01DX005 (ip), vehicle: saline + alcohol
  T/C: 106 % of control
dose: 4.0 mg/kg/injection, schedule: Q01DX005 (ip), vehicle: saline + alcohol
  T/C: 108 % of control
dose: 8.0 mg/kg/injection, schedule: Q01DX005 (ip), vehicle: saline + alcohol
  T/C: 100 % of control

## COC1OC(COS(C)(=O)=O)C(O)C(O)C1OS(C)(=O)=O (stereo not given)
dose: 50.0 mg/kg/injection, schedule: Q01DX009 (ip), vehicle: saline
  T/C: 110 % of control
[7]
  T/C: 106 % of control
[8]
  T/C: 106 % of control

## COc1ccc([N+](=O)[O-])cc1NC(=O)C1C(=O)C(=O)N(c2cc([N+](=O)[O-])ccc2OC)C1=O (stereo not given)
[4]
  T/C: 100 % of control
[5]
  T/C: 100 % of control
[6]
  T/C: 115 % of control

## C=C(C)C(=O)c1ccc(C(=O)O)cc1
dose: 12.5 mg/kg/injection, schedule: Q04DX002 (ip), vehicle: saline with Tween-80
  T/C: 105 % of control
dose: 25.0 mg/kg/injection, schedule: Q04DX002 (ip), vehicle: saline with Tween-80
  T/C: 114 % of control
dose: 50.0 mg/kg/injection, schedule: Q04DX002 (ip), vehicle: saline with Tween-80
  T/C: 122 % of control

## COC1/C=C/OC2(C)Oc3c(C)c(O)c4c(O)c(c(/C=N/Nc5nc6c(N)ncnc6n5C5OC(CO)C(O)C5O)c(O)c4c3C2=O)NC(=O)C(C)=C/C=C/C(C)C(O)C(C)C(O)C(C)C(OC(C)=O)C1C (stereo not given)
dose: 50.0 mg/kg/injection, schedule: Q01DX009 (ip), vehicle: saline with Tween-80
  T/C: 104 % of control
[11]
  T/C: 99 % of control
[12]
  T/C: 113 % of control

## CC(=O)OCC(=O)[C@@]1(O)CC[C@H]2[C@@H]3C[C@H](C)C4=CC(=O)C=C[C@]4(C)[C@H]3[C@@H](O)C[C@@]21C
[11]
  T/C: 118 % of control
[12]
  T/C: 104 % of control
dose: 400.0 mg/kg/injection, schedule: Q01DX009 (ip), vehicle: saline with Tween-80
  T/C: 100 % of control
